The target of this assay is DNA topoisomerase 1 (Bos taurus). Kind of assay: Compound was evaluated for the inhibition of DNA topoisomerase-1 of calf thymus.

The structures appear in SMILES notation.

For the compound `CCCCCCCC(O)c1cc(OC)c2c(c1OC)C(=O)C=CC2=O` (stereo not given) [6-(1-Hydroxy-octyl)-5,8-dimethoxy-[1,4]naphthoquinone], 43.9 µM corresponded to half-maximal inhibition (IC50). Under `CCCCCCC(O)c1cc(OC)c2c(c1OC)C(=O)C=CC2=O` (stereo not given) [6-(1-Hydroxy-heptyl)-5,8-dimethoxy-[1,4]naphthoquinone] stands 30.1 µM. With `CCC(O)c1cc(OC)c2c(c1OC)C(=O)C=CC2=O` (stereo not given) [6-(1-Hydroxy-propyl)-5,8-dimethoxy-[1,4]naphthoquinone] the figure was 122 µM; with `COc1cc(C(C)O)c(OC)c2c1C(=O)C=CC2=O` (stereo not given) [6-(1-Hydroxy-ethyl)-5,8-dimethoxy-[1,4]naphthoquinone], 111 µM. With `CCCCCC(O)c1cc(OC)c2c(c1OC)C(=O)C=CC2=O` (stereo not given) [6-(1-Hydroxy-hexyl)-5,8-dimethoxy-[1,4]naphthoquinone] the figure was 39 µM.
